Legend:
Assay in all cases: KinomeScan profiling
Assay type in all cases: binding
MKNK2 = MKNK2 (Homo sapiens, UniProt Q9HBH9); settings: MKNK2, 1 μM; read-out: % control
How it was run: (§1)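 Single-point competition binding screen: 1 μM, DMSO, 468 kinases. Results reported as % control from RLU, normalised to DMSO and positive-control wells. Activity threshold: <35% control.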

STK16 = biological target: T1, STK16 (Homo sapiens, UniProt O75716); settings: STK16, 1 μM; read-out: % control
T1 construct: purchased KinomeScan® (panel service)
T1 sequence (O75716 whole entry): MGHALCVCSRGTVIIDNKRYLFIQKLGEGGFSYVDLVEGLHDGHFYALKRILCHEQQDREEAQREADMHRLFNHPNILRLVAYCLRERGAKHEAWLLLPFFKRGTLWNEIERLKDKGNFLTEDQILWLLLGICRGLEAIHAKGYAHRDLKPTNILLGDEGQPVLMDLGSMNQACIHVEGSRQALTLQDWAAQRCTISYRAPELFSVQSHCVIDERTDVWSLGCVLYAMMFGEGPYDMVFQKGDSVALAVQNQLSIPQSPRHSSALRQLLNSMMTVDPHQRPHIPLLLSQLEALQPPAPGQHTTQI
How it was run: as §1

BRAF(V600E) = biological target: T2, BRAF(V600E) (Homo sapiens, UniProt P15056, V600E); settings: read-out: % control
T2 construct: purchased KinomeScan®
How it was run: as §1

CSNK2A2 = CSNK2A2 (Homo sapiens, UniProt P19784); settings: CSNK2A2, 1 μM; read-out: % control
Chain of CSNK2A2 (P19784 whole entry): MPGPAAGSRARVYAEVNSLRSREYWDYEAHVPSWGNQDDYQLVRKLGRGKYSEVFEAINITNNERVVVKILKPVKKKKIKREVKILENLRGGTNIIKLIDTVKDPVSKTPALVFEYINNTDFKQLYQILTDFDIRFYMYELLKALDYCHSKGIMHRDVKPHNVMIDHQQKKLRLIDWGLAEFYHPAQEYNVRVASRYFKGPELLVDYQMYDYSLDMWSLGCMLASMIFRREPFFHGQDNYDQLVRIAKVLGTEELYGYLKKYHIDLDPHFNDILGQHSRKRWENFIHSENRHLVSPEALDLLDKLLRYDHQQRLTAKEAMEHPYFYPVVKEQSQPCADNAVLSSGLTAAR
How it was run: as §1

EGFR(L858R, T790M) = EGFR(L858R, T790M) (Homo sapiens, UniProt P00533, L858R/T790M); settings: read-out: % control
Chain of EGFR(L858R, T790M) (P00533 25-1210 T790M/L858R): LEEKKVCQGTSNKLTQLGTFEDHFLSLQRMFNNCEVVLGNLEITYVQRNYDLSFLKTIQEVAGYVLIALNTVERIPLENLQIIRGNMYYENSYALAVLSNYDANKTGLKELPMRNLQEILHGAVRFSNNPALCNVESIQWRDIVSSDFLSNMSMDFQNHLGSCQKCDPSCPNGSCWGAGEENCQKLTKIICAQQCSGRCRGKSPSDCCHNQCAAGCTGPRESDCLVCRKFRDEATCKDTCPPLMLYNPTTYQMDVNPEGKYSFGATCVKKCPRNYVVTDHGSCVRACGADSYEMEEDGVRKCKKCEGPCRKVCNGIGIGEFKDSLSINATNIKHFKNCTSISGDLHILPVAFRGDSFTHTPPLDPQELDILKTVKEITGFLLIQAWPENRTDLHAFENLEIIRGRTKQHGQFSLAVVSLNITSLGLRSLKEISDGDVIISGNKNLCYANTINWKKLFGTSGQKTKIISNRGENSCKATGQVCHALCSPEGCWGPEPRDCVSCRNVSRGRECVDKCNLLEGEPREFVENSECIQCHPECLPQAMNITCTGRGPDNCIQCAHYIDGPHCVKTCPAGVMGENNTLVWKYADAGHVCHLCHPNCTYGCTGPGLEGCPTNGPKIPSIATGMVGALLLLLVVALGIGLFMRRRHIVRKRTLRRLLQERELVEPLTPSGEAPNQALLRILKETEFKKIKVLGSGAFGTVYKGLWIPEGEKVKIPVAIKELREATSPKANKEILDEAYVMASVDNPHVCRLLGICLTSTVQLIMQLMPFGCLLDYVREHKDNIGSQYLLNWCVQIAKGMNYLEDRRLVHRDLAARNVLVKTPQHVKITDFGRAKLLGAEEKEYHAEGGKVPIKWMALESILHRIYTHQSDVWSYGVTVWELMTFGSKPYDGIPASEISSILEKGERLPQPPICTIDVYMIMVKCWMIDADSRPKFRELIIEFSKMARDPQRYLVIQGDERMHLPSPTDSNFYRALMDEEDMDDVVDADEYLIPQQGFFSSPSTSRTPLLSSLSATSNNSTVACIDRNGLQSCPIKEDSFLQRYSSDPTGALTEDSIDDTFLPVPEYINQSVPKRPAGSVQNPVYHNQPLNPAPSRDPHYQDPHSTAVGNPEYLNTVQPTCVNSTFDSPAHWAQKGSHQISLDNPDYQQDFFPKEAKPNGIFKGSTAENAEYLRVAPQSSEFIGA
How it was run: as §1

TESK1 = TESK1 (Homo sapiens, UniProt Q15569); settings: TESK1, 1 μM; read-out: % control
How it was run: as §1

MAP3K4 = MAP3K4 (Homo sapiens, UniProt Q9Y6R4); settings: MAP3K4, 1 μM; read-out: % control
How it was run: as §1

EPHA4 = EPHA4 (Homo sapiens, UniProt P54764); settings: EPHA4, 1 μM; read-out: % control
Chain of EPHA4 (P54764 20-986): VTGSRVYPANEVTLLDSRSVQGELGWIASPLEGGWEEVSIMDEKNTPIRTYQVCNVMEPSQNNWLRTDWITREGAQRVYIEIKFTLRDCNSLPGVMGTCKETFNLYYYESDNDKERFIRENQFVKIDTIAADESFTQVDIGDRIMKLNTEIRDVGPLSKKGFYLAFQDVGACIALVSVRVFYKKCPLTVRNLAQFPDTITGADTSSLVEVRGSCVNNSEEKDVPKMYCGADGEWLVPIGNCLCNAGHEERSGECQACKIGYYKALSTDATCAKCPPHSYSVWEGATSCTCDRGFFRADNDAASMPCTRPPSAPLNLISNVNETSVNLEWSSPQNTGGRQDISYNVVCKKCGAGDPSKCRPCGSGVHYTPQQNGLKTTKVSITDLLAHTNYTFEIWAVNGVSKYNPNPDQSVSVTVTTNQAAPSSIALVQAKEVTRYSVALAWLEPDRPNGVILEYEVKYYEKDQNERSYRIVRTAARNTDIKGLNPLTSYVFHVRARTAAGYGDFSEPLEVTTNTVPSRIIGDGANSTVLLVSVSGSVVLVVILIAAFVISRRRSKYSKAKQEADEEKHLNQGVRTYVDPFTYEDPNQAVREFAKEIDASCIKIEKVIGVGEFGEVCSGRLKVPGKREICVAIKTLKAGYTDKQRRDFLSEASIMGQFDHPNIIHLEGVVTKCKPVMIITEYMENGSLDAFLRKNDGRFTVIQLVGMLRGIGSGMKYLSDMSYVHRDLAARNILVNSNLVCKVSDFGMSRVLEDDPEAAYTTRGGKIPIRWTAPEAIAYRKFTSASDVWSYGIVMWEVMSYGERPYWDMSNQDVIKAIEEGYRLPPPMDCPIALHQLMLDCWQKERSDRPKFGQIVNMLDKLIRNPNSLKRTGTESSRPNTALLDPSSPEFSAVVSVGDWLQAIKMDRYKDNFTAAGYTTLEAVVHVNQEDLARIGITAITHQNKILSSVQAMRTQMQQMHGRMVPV
How it was run: as §1

FGR = FGR (Homo sapiens, UniProt P09769); settings: read-out: % control
How it was run: as §1

MEK1 = MEK1 (Homo sapiens, UniProt Q02750); settings: MEK1, 1 μM; read-out: % control
How it was run: as §1

ADCK3 = biological target: T3, ADCK3 (Homo sapiens, UniProt Q8NI60); settings: ADCK3, 1 μM; read-out: % control
T3 construct: purchased KinomeScan®
T3 sequence (Q8NI60 163-647): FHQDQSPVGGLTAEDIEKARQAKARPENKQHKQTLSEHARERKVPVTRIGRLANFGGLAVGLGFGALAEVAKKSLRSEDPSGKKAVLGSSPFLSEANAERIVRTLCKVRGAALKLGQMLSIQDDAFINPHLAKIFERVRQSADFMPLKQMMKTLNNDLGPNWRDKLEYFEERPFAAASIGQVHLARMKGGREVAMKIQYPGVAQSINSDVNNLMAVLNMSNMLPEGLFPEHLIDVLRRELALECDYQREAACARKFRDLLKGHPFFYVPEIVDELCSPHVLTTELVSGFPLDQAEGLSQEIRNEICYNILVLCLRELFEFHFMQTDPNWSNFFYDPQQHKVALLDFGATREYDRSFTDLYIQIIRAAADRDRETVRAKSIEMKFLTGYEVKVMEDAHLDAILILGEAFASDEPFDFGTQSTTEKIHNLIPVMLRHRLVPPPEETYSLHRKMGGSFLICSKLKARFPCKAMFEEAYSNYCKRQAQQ
How it was run: as §1

ALK(L1196M) = biological target: T4, ALK(L1196M) (Homo sapiens, UniProt Q9UM73, L1196M); settings: read-out: % control
T4 construct: purchased KinomeScan®
T4 sequence (Q9UM73 19-1620 L1196M): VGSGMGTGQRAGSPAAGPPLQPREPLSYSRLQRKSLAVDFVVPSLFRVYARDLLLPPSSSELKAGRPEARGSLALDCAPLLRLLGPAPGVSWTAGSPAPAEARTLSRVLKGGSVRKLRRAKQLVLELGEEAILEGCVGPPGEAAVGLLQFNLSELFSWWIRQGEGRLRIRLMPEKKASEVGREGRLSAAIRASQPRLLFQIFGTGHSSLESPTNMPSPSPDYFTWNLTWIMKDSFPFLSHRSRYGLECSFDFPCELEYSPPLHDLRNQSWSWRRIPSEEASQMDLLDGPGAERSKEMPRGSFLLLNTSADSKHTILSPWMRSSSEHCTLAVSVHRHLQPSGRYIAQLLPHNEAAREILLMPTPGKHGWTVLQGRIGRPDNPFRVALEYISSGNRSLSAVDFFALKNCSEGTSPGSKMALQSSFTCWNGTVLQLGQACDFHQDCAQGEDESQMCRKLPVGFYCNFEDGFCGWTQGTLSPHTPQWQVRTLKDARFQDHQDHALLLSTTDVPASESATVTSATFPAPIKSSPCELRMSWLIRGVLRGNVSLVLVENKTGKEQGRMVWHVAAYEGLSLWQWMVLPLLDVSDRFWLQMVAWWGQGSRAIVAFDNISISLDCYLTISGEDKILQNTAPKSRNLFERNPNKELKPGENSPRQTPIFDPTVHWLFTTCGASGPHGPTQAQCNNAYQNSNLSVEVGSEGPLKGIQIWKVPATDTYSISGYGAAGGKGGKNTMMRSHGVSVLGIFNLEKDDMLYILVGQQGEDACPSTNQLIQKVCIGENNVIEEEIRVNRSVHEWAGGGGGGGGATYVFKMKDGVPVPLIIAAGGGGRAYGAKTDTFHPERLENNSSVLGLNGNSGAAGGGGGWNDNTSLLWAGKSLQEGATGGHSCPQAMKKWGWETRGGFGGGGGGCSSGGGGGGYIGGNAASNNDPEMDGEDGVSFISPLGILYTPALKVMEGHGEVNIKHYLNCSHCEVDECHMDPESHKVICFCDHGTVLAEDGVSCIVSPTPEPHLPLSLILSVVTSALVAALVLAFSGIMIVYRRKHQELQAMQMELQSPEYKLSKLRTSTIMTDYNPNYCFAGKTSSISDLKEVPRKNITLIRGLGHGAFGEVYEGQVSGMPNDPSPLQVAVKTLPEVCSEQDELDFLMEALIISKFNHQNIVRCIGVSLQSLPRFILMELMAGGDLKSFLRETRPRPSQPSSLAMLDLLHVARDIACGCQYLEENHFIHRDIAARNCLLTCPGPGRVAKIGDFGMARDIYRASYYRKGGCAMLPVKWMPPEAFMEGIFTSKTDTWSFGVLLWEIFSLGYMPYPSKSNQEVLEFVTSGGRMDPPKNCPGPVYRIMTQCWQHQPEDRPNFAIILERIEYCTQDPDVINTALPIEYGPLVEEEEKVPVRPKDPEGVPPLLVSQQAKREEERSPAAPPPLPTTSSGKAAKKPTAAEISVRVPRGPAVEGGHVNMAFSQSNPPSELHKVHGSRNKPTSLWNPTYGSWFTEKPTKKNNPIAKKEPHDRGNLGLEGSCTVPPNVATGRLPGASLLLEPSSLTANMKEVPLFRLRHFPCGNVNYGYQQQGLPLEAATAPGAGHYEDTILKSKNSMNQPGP
How it was run: as §1

FLT3(K663Q) = biological target: T5, FLT3(K663Q) (Homo sapiens, UniProt P36888, K663Q); settings: read-out: % control
T5 sequence (P36888 27-993 K663Q): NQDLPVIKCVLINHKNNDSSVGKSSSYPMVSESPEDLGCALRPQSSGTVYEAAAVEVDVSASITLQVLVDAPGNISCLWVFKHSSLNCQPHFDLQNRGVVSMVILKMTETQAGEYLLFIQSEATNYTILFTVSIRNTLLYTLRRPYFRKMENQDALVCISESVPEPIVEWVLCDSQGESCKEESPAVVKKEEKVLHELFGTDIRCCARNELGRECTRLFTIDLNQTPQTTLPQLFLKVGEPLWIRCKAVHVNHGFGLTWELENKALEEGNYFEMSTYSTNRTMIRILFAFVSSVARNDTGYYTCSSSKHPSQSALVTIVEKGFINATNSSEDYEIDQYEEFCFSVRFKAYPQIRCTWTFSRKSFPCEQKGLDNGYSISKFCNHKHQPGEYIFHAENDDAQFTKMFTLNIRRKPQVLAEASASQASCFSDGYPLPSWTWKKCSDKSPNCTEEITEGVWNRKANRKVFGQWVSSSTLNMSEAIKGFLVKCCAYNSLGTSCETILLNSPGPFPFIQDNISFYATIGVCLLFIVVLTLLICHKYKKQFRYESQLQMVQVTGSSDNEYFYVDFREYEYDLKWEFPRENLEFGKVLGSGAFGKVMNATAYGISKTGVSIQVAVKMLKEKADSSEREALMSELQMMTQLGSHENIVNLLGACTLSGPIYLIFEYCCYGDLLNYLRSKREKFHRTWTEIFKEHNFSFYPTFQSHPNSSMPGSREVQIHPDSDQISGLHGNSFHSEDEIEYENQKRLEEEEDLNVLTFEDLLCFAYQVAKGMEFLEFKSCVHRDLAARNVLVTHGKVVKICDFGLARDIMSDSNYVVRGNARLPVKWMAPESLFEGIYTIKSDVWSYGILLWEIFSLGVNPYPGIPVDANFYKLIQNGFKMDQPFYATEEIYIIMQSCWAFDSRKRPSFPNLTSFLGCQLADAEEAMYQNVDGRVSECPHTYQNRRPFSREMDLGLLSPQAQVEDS
How it was run: as §1

GRK1 = biological target: T6, GRK1 (Homo sapiens, UniProt Q15835); settings: GRK1, 1 μM; read-out: % control
T6 sequence (Q15835 1-563): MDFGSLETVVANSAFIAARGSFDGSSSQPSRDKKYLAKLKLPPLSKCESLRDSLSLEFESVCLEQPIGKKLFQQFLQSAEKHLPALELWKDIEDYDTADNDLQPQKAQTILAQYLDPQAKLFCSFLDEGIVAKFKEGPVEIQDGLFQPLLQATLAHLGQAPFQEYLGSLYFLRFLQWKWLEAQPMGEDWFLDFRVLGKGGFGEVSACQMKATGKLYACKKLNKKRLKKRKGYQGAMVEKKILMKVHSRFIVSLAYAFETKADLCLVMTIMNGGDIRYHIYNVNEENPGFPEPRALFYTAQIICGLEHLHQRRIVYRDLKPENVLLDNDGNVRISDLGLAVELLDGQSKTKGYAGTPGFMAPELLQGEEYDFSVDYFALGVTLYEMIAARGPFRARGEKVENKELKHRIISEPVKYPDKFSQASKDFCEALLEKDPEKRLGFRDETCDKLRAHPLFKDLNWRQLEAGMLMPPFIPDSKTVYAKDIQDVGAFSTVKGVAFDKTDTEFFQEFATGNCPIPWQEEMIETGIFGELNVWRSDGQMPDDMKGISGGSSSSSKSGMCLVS
How it was run: as §1

SRC = biological target: T7, SRC (Homo sapiens, UniProt P12931); settings: read-out: % control
T7 construct: purchased KinomeScan® (panel service)
How it was run: as §1

In the case of `O=C(c1ccc(-c2cnc3[nH]cc(Cl)c3c2NC2CCCC2)cc1)N1CCC(N2CCOCC2)CC1` [Compound 101, (4-(3-chloro-4-(cyclopentylamino)-1H-pyrrolo[2,3-b]pyridin-5-yl)phenyl)(4-morpholinopiperidin-1-yl)methanone], the remaining binding at 1 µM (MKNK2) is reported as 94%, the remaining binding at 1 µM (STK16) is reported as 13% and the remaining binding at 1 µM (BRAF(V600E)) is reported as 99%. The remaining binding at 1 µM (CSNK2A2) was 100%, the remaining binding at 1 µM (EGFR(L858R, T790M)) was 100% and the remaining binding at 1 µM (TESK1) was 99%. It also gave a remaining binding at 1 µM (MAP3K4) of 71%, a remaining binding at 1 µM (EPHA4) of 88% and a remaining binding at 1 µM (FGR) of 94%. It also gave a remaining binding at 1 µM (MEK1) of 94%, a remaining binding at 1 µM (ADCK3) of 68% and a remaining binding at 1 µM (ALK(L1196M)) of 94%. It also gave a remaining binding at 1 µM (FLT3(K663Q)) of 28%, a remaining binding at 1 µM (GRK1) of 84% and a remaining binding at 1 µM (SRC) of 100%.
Compound `CNc1c(-c2cnn([C@H]3CCN(C(C)=O)C[C@@H]3F)c2)cnc2[nH]cc(Cl)c12` [Compound 77, 1-((3S,4S)-4-(4-(3-chloro-4-(methylamino)-1H-pyrrolo[2,3-b]pyridin-5-yl)-1H-pyrazol-1-yl)-3-fluoropiperidin-1-yl)ethan-1-one] has a remaining binding at 1 µM (MKNK2) of 56%, a remaining binding at 1 µM (STK16) of 2.9% and a remaining binding at 1 µM (BRAF(V600E)) of 98%. For the same compound, the remaining binding at 1 µM (CSNK2A2) was 90%, the remaining binding at 1 µM (EGFR(L858R, T790M)) was 99% and the remaining binding at 1 µM (TESK1) was 89%. For the same compound, the remaining binding at 1 µM (MAP3K4) was 91%, the remaining binding at 1 µM (EPHA4) was 96% and the remaining binding at 1 µM (FGR) was 80%. The remaining binding at 1 µM (MEK1) was 29%, the remaining binding at 1 µM (ADCK3) was 100% and the remaining binding at 1 µM (ALK(L1196M)) was 91%. For the same compound, the remaining binding at 1 µM (FLT3(K663Q)) was 15%, the remaining binding at 1 µM (GRK1) was 60% and the remaining binding at 1 µM (SRC) was 99%.
In the case of `CNc1c(-c2ccc(C(=O)N3CCC(N4CCOCC4)CC3)cc2)cnc2[nH]cc(Cl)c12` [Compound 96, (4-(3-chloro-4-(methylamino)-1H-pyrrolo[2,3-b]pyridin-5-yl)phenyl)(4-morpholinopiperidin-1-yl)methanone], the remaining binding at 1 µM (MKNK2) is reported as 22%, the remaining binding at 1 µM (STK16) is reported as 2% and the remaining binding at 1 µM (BRAF(V600E)) is reported as 87%. For the same compound, the remaining binding at 1 µM (CSNK2A2) was 92%, the remaining binding at 1 µM (EGFR(L858R, T790M)) was 98% and the remaining binding at 1 µM (TESK1) was 74%. It also gave a remaining binding at 1 µM (MAP3K4) of 68%, a remaining binding at 1 µM (EPHA4) of 100% and a remaining binding at 1 µM (FGR) of 95%. For the same compound, the remaining binding at 1 µM (MEK1) was 12%, the remaining binding at 1 µM (ADCK3) was 100% and the remaining binding at 1 µM (ALK(L1196M)) was 51%. For the same compound, the remaining binding at 1 µM (FLT3(K663Q)) was 15%, the remaining binding at 1 µM (GRK1) was 63% and the remaining binding at 1 µM (SRC) was 100%.

— patent US12275731B2, “Azaindole inhibitors of wild-type and mutant forms of LRRK2” (DANA-FARBER CANCER INSTITUTE, INC., priority 2018, dated 2025)
